Measurements taken from patent US20210348119A1, “COMPOSITIONS AND METHODS FOR CELL CULTURE” (The United States of America as Represented By The …, priority 2018, published 2021).
“And” between values parts separate entries of the source, which are not always exact repeats. Equal entries are not always repeated. Structures can show the parent of a compound that is named as a salt. Where two headings read alike, the source gives them in different places.

Test system: H9 cells
Test: qHTS for survival of dissociated H9 cells (CellTiter-Glo, 24 hours after seeding)
Type: cell-based, human
Description: FIG. 2 schematically illustrates qHTS procedure.
All the screed compounds were received pre-plated at the pre-determined concentrations. […] Curve classification is explained in Huang et al. “Chemical genomics profiling of environmental chemical modulation of human nuclear receptors” Environ. Health. Perspect.

[1] = H9 cell survival normalized to 10 μM Y-27632 (taken to be 100%)
[2] = H9 cell survival, CellTiter-Glo 24 hours after seeding; read-out: AC50 (concentration at 50% efficacy)
[3] = H9 cell survival, normalized to 10 μM Y-27632
[4] = Homo sapiens, H9, 24 h, H9 cell survival normalized to 10 μM Y-27632 (taken to be 100%); read-out: Max (maximum activity value from all tested concentrations)
[5] = Homo sapiens, H9, 24 h, H9 cell survival, normalized to 10 μM Y-27632; read-out: Efficacy (activity range between predicted activities at zero and infinite doses, Hill equation)
[6] = Homo sapiens, H9, 24 h, H9 cell survival, CellTiter-Glo 24 hours after seeding; read-out: AC50 (concentration at 50% efficacy)
[7] = Homo sapiens, H9, 24 h; read-out: Efficacy (activity range between predicted activities at zero and infinite doses, Hill equation)
[8] = Homo sapiens, H9, 24 h; read-out: Max (maximum activity value from all tested concentrations)
[9] = Homo sapiens; H9 cell survival, CellTiter-Glo 24 hours after seeding; read-out: AC50 (concentration at 50% efficacy)
[10] = Homo sapiens, H9, 24 h, read-out: Efficacy (activity range between predicted activities at zero and infinite doses, Hill equation)
[11] = Homo sapiens, H9, 24 h, read-out: Max (maximum activity value from all tested concentrations)

Structure (SMILES)	Max (maximum activity value from all tested concentrations) [1]	AC50 [2] [µM]	Efficacy (activity range between predicted activities at zero and infinite doses, Hill equation) [3]	Emax [4] [%]	also measured
COc1c(Nc2ncc(Cl)c(N[C@H]3[C@@H](C(N)=O)[C@@H]4C=C[C@H]3C4)n2)ccc2c1CC[C@@H](N1CCOCC1)CC2 [CEP-28122]	23.83%	0.585	23.5	–	–
CN1CCN(c2cccc(Nc3nc4c(-c5ccc(S(C)(=O)=O)cc5)cccn4n3)c2)CC1 [CEP-33779]	27.79%	5.9	25.5	–	–
O=c1[nH]c2ccc(Cl)cc2c(N[C@@H]2CN3CCC2CC3)c1-c1nc2ccccc2[nH]1 [CHIR-124]	21.27%	0.235	12.4	–	–
Cc1[nH]c2ccccc2c1CCNC(=O)c1cccs1 [CK-636]	47.74%	–	0	–	–
COCCOc1ccc2c(c1)ncn2-c1ccc2cccc(N3CCC(N)CC3)c2n1 [CP-673451]	–	–	–	35.6	Emax [5]: 0%
COCC(=O)NC/C=C/c1ccc2ncnc(Nc3ccc(Oc4ccc(C)nc4)c(C)c3)c2c1 [CP-724714]	–	–	–	21.2	AC50 [6]: 20.8 µM; Emax [5]: 23.5%
CCS(=O)(=O)N1CCN(c2ccc(Nc3ncc(C(N)=O)c(NC4CC4)n3)cc2)CC1 [Cerdulatinib]	–	–	–	39	AC50 [6]: 2.93 µM; Emax [5]: 33.6%
C=C1[C@@H](C)[C@H]2[C@H](Cc3ccccc3)NC(=O)[C@]23OC(=O)/C=C/[C@H](O)CCC[C@@H](C)C/C=C/[C@H]3[C@@H]1O [Cytochalasin B]	14.14%	7.5	43.2	–	–
Cc1c(O)c(O)cc2c1CC=C1[C@@]2(C)CC[C@@]2(C)[C@@H]3C[C@](C)(C(=O)O)CC[C@]3(C)CC[C@]12C [DIHYDROCELASTROL]	–	–	–	–	Emax [7]: 26.1%; Emax [8]: 21.2%; AC50 [9]: 14.7 µM
CC(C)(C)c1nc(-c2cccc(NS(=O)(=O)c3c(F)cccc3F)c2F)c(-c2ccnc(N)n2)s1 [Dabrafenib]	–	–	–	22	AC50 [6]: 14.8 µM; Emax [5]: 21.7%
CC[C@@](C)(Nc1ccnc(-c2c[nH]c3ncccc23)n1)C(=O)NCC(F)(F)F [Decernotinib]	–	–	–	34	AC50 [6]: 2.93 µM; Emax [5]: 30.1%
Cn1c(=O)c2c(ncn2CC2OCCO2)n(C)c1=O [Doxofylline]	–	–	–	–	AC50 [6]: 0.521 µM; Emax [10]: 12.1%; Emax [11]: 22.5%
CC1=NN(c2ccccc2)C(=O)C1 [Edaravone]	–	–	–	21	AC50 [6]: 0.521 µM; Emax [5]: 11%
O=S(=O)(c1cccc2cnccc12)N1CCCNCC1 [Fasudil hydrochloride]	–	–	–	107	AC50 [6]: 33.2 µM; Emax [5]: 127%
CNCCC(Oc1ccc(C(F)(F)F)cc1)c1ccccc1 (stereo not shown) [Fluoxetine hydrochloride]	–	–	–	70.4	Emax [5]: 0%
CC1(C)[C@@H](O[C@H]2O[C@H](C(=O)O)[C@@H](O)[C@H](O)[C@H]2O[C@@H]2O[C@H](C(=O)O)[C@@H](O)[C@H](O)[C@H]2O)CC[C@]2(C)[C@H]3C(=O)C=C4[C@@H]5C[C@@](C)(C(=O)O)CC[C@]5(C)CC[C@@]4(C)[C@]3(C)CC[C@@H]12.N [GLYCYRRHIZIC ACID. AMMONIUM SALT]	23.95%	14.7	26	–	–
CC1=C(C(=O)Nc2cc3cn[nH]c3cc2F)C(c2ccc(Cl)cc2F)N=C(c2ccnc(Cl)c2)N1 (stereo not shown) [GSK-25]	121.1% and 113.3%	–	118 and 113	–	–

Structure (SMILES)	Max (maximum activity value from all tested concentrations) [1]	AC50 [2] [µM]	Efficacy (activity range between predicted activities at zero and infinite doses, Hill equation) [3]	Emax [4] [%]	also measured
CCn1c(-c2nonc2N)nc2cnc(Oc3cccc(NC(=O)c4ccc(OCCN5CCOCC5)cc4)c3)cc21 [GSK-269962A]	133.3%	11.8	106	–	–
CC1=C(C(=O)Nc2cc3cn[nH]c3cc2F)C(c2ccc(C(F)(F)F)cc2)CC(=O)N1 (stereo not shown) [GSK-429286A]	129.3%	3.32	126	–	–
Cc1cncc2cccc(S(=O)(=O)N3CCCN(C(=O)CN)C[C@@H]3C)c12 [Glycyl-H-1152]	–	–	–	121	–
Cn1c2ccccc2c2c3c(c4c5ccccc5n(CCC#N)c4c21)CNC3=O [Go-6976]	–	–	–	49.1	AC50 [6]: 4.69 µM; Emax [5]: 37.3%
Cl.Cl.O=S(=O)(NCCNC/C=C/c1ccc(Br)cc1)c1cccc2cnccc12 [H-89]	25.95%	1.87	16.9	–	–
O=S(=O)(c1cccc2cnccc12)N1CCNCC1 [HA-100]	88.17%	7.31	88.9	–	–
Cl.NC(N)=NCCNS(=O)(=O)c1cccc2cnccc12 [HA-1004 hydrochloride]	50.05%	5.17	50	–	–
N#Cc1cc(-c2ccnc(Nc3ccc(N4CCOCC4)cc3)n2)ccc1OC1CCOCC1 [IKK epsilon-IN-1]	28.74%	14.7	30.6	–	–
C/C=C(/C)C(=O)O[C@H]1C(C)=C[C@]23C(=O)[C@@H](C=C(CO)[C@@H](O)[C@]12O)[C@H]1[C@@H](C[C@H]3C)C1(C)C [Ingenol mebutate]	–	–	–	–	Emax [7]: 41.4%; Emax [8]: 57.6%; AC50 [9]: 0.118 µM
CNc1ccc([N+](=O)[O-])c(Nc2ccc3[nH]ncc3c2)n1 [KRIBB11]	72.62%	0.585	62.1	–	–
O=C(c1ccc(/C=C/c2n[nH]c3ccccc23)cc1)N1CCNCC1 [KW-2449]	–	–	–	40	AC50 [6]: 33.2 µM; Emax [5]: 44.5%
O=C(NCc1cccc(O)c1)c1cc2cc(F)ccc2[nH]1 [KX1-004]	102.2%	3.29	103	–	–
Cc1c[nH]c2ncnc(N3CCC(CN)(C(=O)Nc4cccc(OC(=O)N(C)C)c4)CC3)c12 [LX-7101]	–	–	–	–	Emax [7]: 21.6%; Emax [8]: 53.7%; AC50 [9]: 2.33 µM
C[C@]12O[C@H](C[C@]1(O)CO)n1c3ccccc3c3c4c(c5c6ccccc6n2c5c31)CNC4=O [Lestaurtinib]	–	–	–	–	AC50 (Homo sapiens, H9, 24 h, read-out: AC50 (concentration at 50% efficacy)): 1.18 µM; Emax [10]: 7.59%; Emax [11]: 53%
Cc1nc(N2CCN(C(=O)c3ccco3)CC2)c2c3c(sc2n1)CCCC3 [ML192]	25.23%	0.521	13.5	–	–
N#CCNC(=O)c1ccc(-c2ccnc(Nc3ccc(N4CCOCC4)cc3)n2)cc1 [Momelotinib]	–	–	–	–	AC50 [6]: 0.935 µM
C=C(CO)C(=O)O[C@H]1CC(=C)[C@@H]2C[C@H](O)C(=C)[C@@H]2[C@H]2OC(=O)C(=C)[C@@H]21 [NCGC00168845-02]	21.8%	3.61	27.1	–	–
